From patent US12577238B2, “Compositions and methods for modulating inflammatory and degenerative disorder” (University of Southern California, priority 2018, dated 2026)
“Also recorded” adds a separate entry of the source.

Assays:
gp130 = biological target: T1, gp130 (Rattus norvegicus, UniProt P40190); test: Injection into rat knees, pSTAT3 and MYC levels; format: in vivo; details: injection into rat joints
T1 construct: from tissue; host or cells: rat knee joint in vivo (Sprague-Dawley wild-type in the CFA model)
T1 sequence (P40190 23-918): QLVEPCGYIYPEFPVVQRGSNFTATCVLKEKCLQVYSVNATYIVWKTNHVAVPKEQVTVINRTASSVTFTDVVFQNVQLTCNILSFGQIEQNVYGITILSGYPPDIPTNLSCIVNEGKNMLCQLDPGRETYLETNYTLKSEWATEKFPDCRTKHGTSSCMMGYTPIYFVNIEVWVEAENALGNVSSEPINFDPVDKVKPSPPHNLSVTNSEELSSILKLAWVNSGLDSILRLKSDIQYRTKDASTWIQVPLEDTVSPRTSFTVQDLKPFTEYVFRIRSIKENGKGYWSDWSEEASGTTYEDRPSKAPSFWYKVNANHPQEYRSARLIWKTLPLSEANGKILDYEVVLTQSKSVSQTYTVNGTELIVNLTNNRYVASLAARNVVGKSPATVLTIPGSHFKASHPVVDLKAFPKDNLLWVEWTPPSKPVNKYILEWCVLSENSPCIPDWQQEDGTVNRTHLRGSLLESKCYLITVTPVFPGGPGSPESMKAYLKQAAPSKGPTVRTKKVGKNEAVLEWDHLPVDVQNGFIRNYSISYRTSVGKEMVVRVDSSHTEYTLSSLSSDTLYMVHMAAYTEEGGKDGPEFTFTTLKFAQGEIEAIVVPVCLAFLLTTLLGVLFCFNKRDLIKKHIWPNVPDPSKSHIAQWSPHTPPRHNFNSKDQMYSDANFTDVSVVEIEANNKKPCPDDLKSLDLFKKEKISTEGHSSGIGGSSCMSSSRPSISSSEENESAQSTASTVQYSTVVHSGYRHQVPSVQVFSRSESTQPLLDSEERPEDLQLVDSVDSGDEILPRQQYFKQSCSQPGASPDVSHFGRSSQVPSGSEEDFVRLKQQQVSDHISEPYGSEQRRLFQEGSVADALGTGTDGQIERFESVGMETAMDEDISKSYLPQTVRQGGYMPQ
Protocol: Based on this, it was hypothesized that RCGD 423 acts through gp130 by promoting stable homodimers in the absence of ligand. To confirm that RCGD 423 acts through gp130, the gp130 null cell line Ba/F3 cells was used. Ba/F3 cells were transfected with either full-length gp130 or a mutant gp130 lacking domain 2 (ΔD2), which contains the predicted binding site for RCGD 423 (FIG. 7). […] To verify the specificity of RCGD 423 in vivo, the compound was injected into rat knees in the presence of the small molecule gp130 inhibitor SC144 or a blocking antibody specific for domain 2 of gp130. […] The ability of RCGD 423 to act via inducing formation of gp130 homodimers was then examined by expressing tagged versions of gp130 in 293T cells. In this system, only homodimeric complexes can contain both tagged versions of gp130 (FIG. 9).

NF-κB protein = test: OSM or IL-6 induced NF-κB in human adult articular chondrocytes; format: cell-based; details: in combination with OSM or IL-6
OSMR and gp130 = biological target: T2, OSMR and gp130 (Homo sapiens, UniProt P40189); test: Receptor competition, gp130-Flag pull-down, OSMR; format: cell-based; details: in the presence of OSM; IP-FLAG, WB-OSMR
T2 construct: FLAG; expressed in transfected cells; host or cells: adult human chondrocytes
T2 sequence (P40189 23-918): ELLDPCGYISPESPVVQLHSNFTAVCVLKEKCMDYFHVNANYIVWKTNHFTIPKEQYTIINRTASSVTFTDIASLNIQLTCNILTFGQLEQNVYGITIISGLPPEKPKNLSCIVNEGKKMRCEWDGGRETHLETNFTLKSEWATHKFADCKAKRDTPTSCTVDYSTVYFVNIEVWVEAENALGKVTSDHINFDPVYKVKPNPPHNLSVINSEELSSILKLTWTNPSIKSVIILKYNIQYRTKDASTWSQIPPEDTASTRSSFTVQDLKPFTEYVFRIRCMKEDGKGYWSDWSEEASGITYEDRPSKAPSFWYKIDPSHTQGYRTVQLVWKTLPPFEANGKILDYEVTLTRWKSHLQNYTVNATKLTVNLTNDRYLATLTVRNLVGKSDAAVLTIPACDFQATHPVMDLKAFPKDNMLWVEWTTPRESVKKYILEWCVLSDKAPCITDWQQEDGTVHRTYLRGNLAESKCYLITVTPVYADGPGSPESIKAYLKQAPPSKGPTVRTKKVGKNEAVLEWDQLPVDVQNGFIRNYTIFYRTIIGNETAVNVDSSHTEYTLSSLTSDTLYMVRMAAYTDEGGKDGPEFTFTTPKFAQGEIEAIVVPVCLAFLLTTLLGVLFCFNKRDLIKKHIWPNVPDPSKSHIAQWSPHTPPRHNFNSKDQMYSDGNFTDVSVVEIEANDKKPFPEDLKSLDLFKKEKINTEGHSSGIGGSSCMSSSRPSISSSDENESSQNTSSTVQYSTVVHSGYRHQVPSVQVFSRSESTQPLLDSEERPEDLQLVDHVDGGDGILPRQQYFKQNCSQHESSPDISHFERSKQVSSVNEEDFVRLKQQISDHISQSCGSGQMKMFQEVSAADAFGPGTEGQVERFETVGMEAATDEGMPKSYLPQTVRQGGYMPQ
Protocol: Adult human chondrocytes transfected with gp130-Flag were incubated with various concentrations of RCGD 423 in the presence of IL-6 or OSM; levels of immoprecipitated IL-6R or OSMR were used to calculate the dissociation constant (Kd).
Adult human chondrocytes; IP-FLAG AB (transfected with gp130 FLAG plasmid), WB-OSMR.
This property would be of great interest due to the pro-inflammatory and pro-catabolic effects of these cytokines in the joint space. […] To assess whether RCGD 423 could directly compete for gp130 occupancy, human adult articular chondrocytes were transfected with tagged gp130 and then pulled down associated proteins±RCGD 423 and/or IL-6.

[1] = Rat model of degenerative osteoarthritis (partial meniscectomy); format: in vivo
Protocol: In this system, 50% of the meniscus is surgically removed, promoting joint instability similar to what is commonly observed in human OA and degeneration of articular cartilage in 3-6 weeks (FIGS. 12A and B). RCGD 423 loaded onto PLGA (poly(lactic-co-glycolic acid)) microspheres for slow release, or microspheres alone, were injected into the joint space at the time of surgery and 3 weeks later.

Brc1ccc(Nc2nc(-c3ccccc3)cs2)cc1 [RCGD 423]
pSTAT3 and MYC levels in rat joints (gp130): increased pSTAT3 and MYC levels
increases in NF-κB protein / signaling downstream of OSM and IL-6 (NF-κB protein): significantly reduced increases in NF-κB protein; also recorded: reduces signaling downstream of OSM and IL-6
competition with OSMR for gp130 occupancy / OSMR-gp130 interaction (OSMR and gp130): directly competes with OSMR and IL-6R for gp130 occupancy
OARSI scores ([1]; 6 weeks, loaded onto PLGA microspheres, injected into joint space at surgery and 3 weeks later): highly significantly lower OARSI scores
expression of proteolytic (catabolic) enzymes after joint injury ([1]; rat OA model): decreased the expression of proteolytic enzymes; also recorded: decreased the levels of catabolic enzymes
formation, size and maturity of osteophytes ([1]; rats following partial meniscectomy): inhibited both the formation and maturity of osteophytes; also recorded: reduced the size and maturity of osteophytes
